# Data from paper PMC10458721, “Monitoring Both Extended and Tryptic Forms of Stable Isotope-Labeled Standard Peptides Provides an Internal Quality Control of Proteolytic Digestion in Targeted Mass Spectrometry-Based Assays” (Molecular & Cellular Proteomics : MCP, 2023).
# Legend:
# trypsin [1] = target: T1, trypsin (Sus scrofa, UniProt P00761); experiment: Apparent first order hydrolysis of extended SIS peptides (kobs, half-life, time to 75% and 95% hydrolyzed); assay type: in vitro ADME; parameters: purchased Promega V5111; conditions: for Observed rate constant (slope of linear regression of Ln(A,t/A,0) over time): trypsin digestion time course, direct-MRM
# T1 sequence (P00761 9-231): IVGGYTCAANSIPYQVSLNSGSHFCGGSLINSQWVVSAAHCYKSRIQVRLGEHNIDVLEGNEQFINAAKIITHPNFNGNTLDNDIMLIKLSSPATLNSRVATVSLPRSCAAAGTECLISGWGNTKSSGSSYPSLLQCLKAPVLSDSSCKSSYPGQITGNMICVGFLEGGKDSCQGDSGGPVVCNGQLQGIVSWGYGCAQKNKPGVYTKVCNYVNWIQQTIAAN
# Description: By plotting the natural log as a function of time, or ln(At/A0)∼t, with At and A0 reported as the average peak area of hE from process triplicates at time t and time zero, respectively, a linear fit was calculated and kobs was reported as the slope of the fit (supplemental Table S9). […] Hydrolysis or disappearance of extended SIS peptides across both assays were categorized as fast, medium, slow, or pre-digested by Lys-C (not included in plot) by rate constants calculated using apparent first order kinetics. […] MRM, multiple reaction monitoring; SIS, stable isotope-labeled standard.
# trypsin [2] = target: T1, trypsin; experiment: hE/hT QC metric of proteolytic digestion (pass/marginal/fail); parameters: purchased Promega V5111; conditions: QC panel SIS pairs, 0 to 21 h, three replicates, versus 16-h control digestion
# Description: We next compared the utility of the peak area of hT and the ratio of hE/hT as a QC metric to monitor trypsin digestion efficiency. Measurements from the triplicate control digestion samples were used to define the acceptability criteria for the QC metric. A QC pass was defined as an hT value or hE/hT ratio within 2 SD of the median. A marginal QC was defined as a value that was less than three SD but more than two SD greater than the median. Finally, a QC failure was defined as a value that was three SDs greater than the median. We then tested the ability of the QC metric, as defined by either the hE/hT ratio or hT alone, to detect a loss of assay sensitivity, defined as the endogenous peak area in the stressed condition as a fraction of the control. There were 23 targets (15 for the direct-MRM assay, 8 for the immuno-MRM assay) that had endogenous measurements above the LLOQ in the control digestions and also had extended peptides that were not categorized as ‘pre-digested’.
# Finally, to ensure the hE/hT QC metric was not subject to day-to-day variability, we excluded any SIS pairs that failed QC across our replicate, 16-h control digestions (one in the stressor experiment and one in the time course experiment). […]
# [3] = fit with R2 > 0.80, min 3-4 time points
# [4] = fit with R2 > 0.80, time points chosen to maximize R2 (minimum 4 points)
Substance,"Observed rate constant (slope of linear regression of Ln(A,t/A,0) over time) (trypsin [1]; [3]) [min⁻¹]","Observed rate constant (slope of linear regression of Ln(A,t/A,0) over time) (trypsin [1]; [4]) [min⁻¹]",other results
DEVIKEVQEFYKDTYNK [CD9_P21926_1751],-0.0217,,
EEMEKVLAGETLSVNDPPDVLDRQK [ILF3_Q12906_GO],-0.0481,,
YTELPYGR[+10],,,"hE/hT QC result in trypsin digestion time course (trypsin [2]): pass QC, then fail (or marginally pass) the QC at the latest time point"
KHRTGDEITYQC[+57]RNGF [CFH_P08603_1752],,-0.0473,
IERTFHVETPEEREEW [AKT1_P31749_1751],,-0.0388,
AATC[+57]SKYTELPYGREDVLKE,,,"Half-life of extended SIS peptide (trypsin [1]; direct-MRM trypsin digestion time course, from observed rate constant): 31.34 min"
DSFRFGAPPHAGGGIGLERVTML [DARS_P14868_1752],-0.0308,,
DTKSDIIFFQRSVP [IL18_Q14116_1752],-0.1677,,
GEEDNSLSVR[+10],,,hE/hT QC result in trypsin digestion time course (trypsin [2]): inconsistent QC results across the three replicates prior to the last time point
IQVGRNIIHGSDSVESAEKEIGLWF [NME1_P15531_1753],,-0.0813,
